The text below walks through data of US8722849B2, “Polypeptides” (Novo Nordisk A/S, priority 2011, dated 2014).

Converted amounts (≈) assume the structure as drawn. Where two headings read alike, the source gives them in different places. Starred links: 1 amine or outer side, 2 acyl side, 3 side chain; linkers in the order of their positions; H or OH if unused. Positions of bridges follow the written chain, without caps; N, C: chain ends. Residues, ends and D or L forms follow the SMILES beside them. *: point of attachment. C20 diacid = O=C(O)CCCCCCCCCCCCCCCCCCC(=O)*; γGlu = O=C(O)[C@H](CCC(=O)[*:2])N[*:1]

A short description of series [1]: Assay (IX) pK, determination of T½ in mini-pig. In kind it is in vivo, Göttingen mini-pigs. To be noted: male, Göttingen, iv, 2 nmol/kg; minipig; plasma terminal half-life.
For series [2], the target named is T1, human amylin receptor (amylin 3(a) receptor: human calcitonin receptor + RAMP-3) (Homo sapiens, UniProt O60896+P30988).
T1 construct: expressed in transfected cells; host or cells: BHK570
T1 sequence (P30988 25-474): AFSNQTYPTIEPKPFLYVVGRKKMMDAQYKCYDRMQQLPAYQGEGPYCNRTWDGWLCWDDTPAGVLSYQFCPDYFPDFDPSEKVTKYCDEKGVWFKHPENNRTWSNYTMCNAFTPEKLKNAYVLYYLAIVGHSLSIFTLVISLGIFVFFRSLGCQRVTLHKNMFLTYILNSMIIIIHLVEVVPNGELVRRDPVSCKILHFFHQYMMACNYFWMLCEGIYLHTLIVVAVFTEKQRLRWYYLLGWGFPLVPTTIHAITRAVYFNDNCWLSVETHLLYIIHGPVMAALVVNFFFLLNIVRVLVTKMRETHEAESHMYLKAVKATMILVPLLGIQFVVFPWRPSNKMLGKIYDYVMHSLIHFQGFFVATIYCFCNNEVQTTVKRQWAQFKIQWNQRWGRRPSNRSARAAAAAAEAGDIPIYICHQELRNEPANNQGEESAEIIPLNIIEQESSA
T1 sequence (O60896 24-148 partner): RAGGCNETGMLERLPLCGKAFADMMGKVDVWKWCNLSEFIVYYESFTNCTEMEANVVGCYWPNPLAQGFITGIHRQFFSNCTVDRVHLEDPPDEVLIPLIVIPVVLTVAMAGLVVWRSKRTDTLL
In words: Assay (II)a functional CRE-luciferase assay, human amylin receptor. To be noted: Table 2; BHK amylin 3(a)-receptor/CRE-luc cells. In kind it is cell-based.

Series [3] has as its target T2, rat amylin 3(a) receptor (rat calcitonin(a) receptor + rat RAMP3) (Rattus norvegicus, UniProt P32214+Q9JJ73).
T2 construct: expressed in transfected cells; host or cells: BHK tk'ts 13
T2 sequence (P32214 25-479 isoform P32214-2 limits assumed): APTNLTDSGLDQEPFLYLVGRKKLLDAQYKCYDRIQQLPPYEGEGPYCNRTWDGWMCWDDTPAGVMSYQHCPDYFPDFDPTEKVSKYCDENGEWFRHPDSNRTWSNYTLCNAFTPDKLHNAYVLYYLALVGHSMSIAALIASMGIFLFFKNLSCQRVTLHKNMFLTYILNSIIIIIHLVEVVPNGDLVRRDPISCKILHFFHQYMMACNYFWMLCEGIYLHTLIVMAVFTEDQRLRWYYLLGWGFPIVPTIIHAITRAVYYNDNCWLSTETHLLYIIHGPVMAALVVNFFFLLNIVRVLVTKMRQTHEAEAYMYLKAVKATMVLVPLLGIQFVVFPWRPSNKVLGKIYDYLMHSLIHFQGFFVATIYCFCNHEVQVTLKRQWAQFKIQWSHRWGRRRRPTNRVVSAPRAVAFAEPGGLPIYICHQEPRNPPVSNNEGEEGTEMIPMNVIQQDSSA
T2 sequence (Q9JJ73 23-147 partner): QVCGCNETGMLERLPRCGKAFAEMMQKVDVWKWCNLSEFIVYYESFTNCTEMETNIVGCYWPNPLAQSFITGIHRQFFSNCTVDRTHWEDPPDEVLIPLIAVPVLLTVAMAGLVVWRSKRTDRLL
In words: Assay (II)b functional cAMP FlashPlate assay, rat amylin receptor. Conditions: Table 11. It counts as cell-based. A digest of the protocol: (§1)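 BHK tk'ts 13 cells transiently transfected with rat calcitonin(a) receptor, alone or with rat RAMP3 (amylin 3(a)), were stimulated 24 hours later with sample for 30 min in buffer containing IBMX. cAMP measured by competitive radioactive FlashPlate assay, scintillation read after 3 h detection incubation.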

Series [4] is described as follows: Assay (IV) determination of solubility. It counts as physicochemical. Summed up: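 Polypeptide in water (~500 nmol/ml stock) was mixed 1:1 with 100 mM buffers from pH 3.0 to 8.0 (glycylglycine pH 3.0–5.0; bistrispropane pH 6.0–8.0). After 18 hours at room temperature, samples were centrifuged and the polypeptide remaining in solution was quantified by HPLC.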
The target of series [5] is T3, human calcitonin receptor (Homo sapiens, UniProt P30988).
T3 construct: expressed in transfected cells; host or cells: BHK570
T3 sequence (P30988 25-474): T1 sequence (P30988 25-474)
Description: Assay (II)a functional CRE-luciferase assay, human calcitonin receptor. In kind it is cell-based. To be noted: Table 7; human calcitonin (CTa) receptor.

In series [6] the target is T4, rat calcitonin (a) receptor (Rattus norvegicus, UniProt P32214).
T4 construct: expressed in transfected cells; host or cells: BHK tk'ts 13
T4 sequence (P32214 25-479 isoform P32214-2 limits assumed): T2 sequence (P32214 25-479 isoform P32214-2 limits assumed)
Description: Assay (II)b functional cAMP FlashPlate assay, rat calcitonin receptor. It counts as cell-based. Conditions: Table 11; read-out: CTa receptor rat EC50. Summed up: as §1

The target of another series is T5, amylin receptor (Homo sapiens, UniProt P30988).
T5 sequence (P30988 25-474): T1 sequence (P30988 25-474)
To be noted: amylin receptor vs calcitonin receptor, cited from earlier work.

The conditions of series [7]: cited from earlier work.
Setting [8] is: bistrispropane buffer, pH 6, pH 6.0, read-out: Solubility pH 6.0.
Setting [9] is: bistrispropane buffer, pH 6.5, pH 6.5, read-out: Solubility pH 6.5.
Where [10] appears, read: bistrispropane buffer, pH 7, pH 7.0, 18 hours at room temperature, Table 3, read-out: Solubility pH 7.0.
The mark [11] stands for this setting: bistrispropane buffer, pH 7, pH 7.0, read-out: Solubility pH 7.0.
Setting [12] is: bistrispropane buffer, pH 7.5, pH 7.5, read-out: Solubility pH 7.5.
Where [13] appears, read: glycylglycine buffer, pH 3, pH 3.0, read-out: Solubility pH 3.0.
The mark [14] stands for this setting: glycylglycine buffer, pH 4, pH 4.0, 18 hours at room temperature, Table 2, read-out: Solubility pH 4.0.
[15] abbreviates: glycylglycine buffer, pH 4, pH 4.0, read-out: Solubility pH 4.0.
The mark [16] stands for this setting: glycylglycine buffer, pH 5, pH 5.0, read-out: Solubility pH 5.0.

Take `CC[C@H](C)[C@H](NC(=O)[C@@H]1CCCN1C(=O)CNC(=O)[C@H](Cc1ccccc1)NC(=O)[C@H](CC(N)=O)NC(=O)[C@H](CC(N)=O)NC(=O)[C@H](CO)NC(=O)[C@H](CO)NC(=O)[C@H](Cc1c[nH]cn1)NC(=O)[C@H](Cc1cnc[nH]1)NC(=O)[C@H](CC(C)C)NC(=O)[C@H](Cc1ccccc1)NC(=O)[C@H](CCC(=O)O)NC(=O)[C@H](C)NC(=O)[C@H](CC(C)C)NC(=O)[C@H](CCCNC(=N)N)NC(=O)[C@H](CCC(N)=O)NC(=O)[C@@H](NC(=O)[C@H](C)NC(=O)[C@@H]1CSSC[C@H](NC(=O)[C@H](CCCCN)NC(=O)CC[C@H](NC(=O)CCCCCCCCCCCCCCCCCCC(=O)O)C(=O)O)C(=O)N[C@@H](CC(N)=O)C(=O)N[C@@H]([C@@H](C)O)C(=O)N[C@@H](C)C(=O)N[C@@H]([C@@H](C)O)C(=O)N1)[C@@H](C)O)C(=O)N[C@@H](CC(C)C)C(=O)N1CCC[C@H]1C(=O)N1CCC[C@H]1C(=O)N[C@H](C(=O)N[C@@H](CC(N)=O)C(=O)N[C@H](C(=O)NCC(=O)N[C@@H](CO)C(=O)N[C@@H](Cc1cnc[nH]1)C(=O)N[C@H](C(=O)N[C@@H](Cc1ccc(O)cc1)C(N)=O)[C@@H](C)O)C(C)C)[C@@H](C)O` [Example 55, N-alpha-[(S)-4-Carboxy-4-(19-carboxynonadecanoylamino)butyryl]-[Glu14,His17,His35]-pramlintide] ({C20 diacid-γGlu}-KCNTATCATQRLAEFLHHSSNNFGPILPPTNVGSHTY-NH2; disulfide 2-7): the half-life in series [1] was 73 h. Further, the EC50 in series [2] came to 0.152 nM; in series [3] it was 0.262 nM; in series [5] it was 0.163 nM; in series [6], 0.673 nM. Moreover, the solubility at 18 h was greater than 200 µM in series [4] (setting [8]); 146 µM (≈ 654 µg/mL) in series [4] (setting [9]); 102 µM (≈ 459 µg/mL) in series [4] (setting [10]); 102 µM (≈ 459 µg/mL) in series [4] (setting [11]); 108 µM (≈ 486 µg/mL) in series [4] (setting [12]); 146 µM (≈ 654 µg/mL) in series [4] (bistrispropane buffer, pH 8, pH 8.0, read-out: Solubility pH 8.0). For the same compound, the solubility at 18 h in series [4] (setting [13]), in series [4] (setting [14]), in series [4] (setting [15]) and in series [4] (setting [16]) was greater than 200 µM each time.

In the case of `CC[C@H](C)[C@H](NC(=O)[C@@H]1CCCN1C(=O)CNC(=O)[C@H](Cc1ccccc1)NC(=O)[C@H](CC(N)=O)NC(=O)[C@H](CC(N)=O)NC(=O)[C@H](CO)NC(=O)[C@H](CO)NC(=O)[C@H](Cc1c[nH]cn1)NC(=O)[C@H](CCCNC(=N)N)NC(=O)[C@H](CC(C)C)NC(=O)[C@H](Cc1ccccc1)NC(=O)[C@H](CCC(=O)O)NC(=O)[C@H](C)NC(=O)[C@H](CC(C)C)NC(=O)[C@H](CCCNC(=N)N)NC(=O)[C@H](CCC(N)=O)NC(=O)[C@@H](NC(=O)[C@H](C)NC(=O)[C@@H]1CSSC[C@H](NC(=O)[C@H](CCCCN)NC(=O)CC[C@H](NC(=O)CCCCCCCCCCCCCCCCCCC(=O)O)C(=O)O)C(=O)N[C@@H](CC(N)=O)C(=O)N[C@@H]([C@@H](C)O)C(=O)N[C@@H](C)C(=O)N[C@@H]([C@@H](C)O)C(=O)N1)[C@@H](C)O)C(=O)N[C@@H](CC(C)C)C(=O)N1CCC[C@H]1C(=O)N1CCC[C@H]1C(=O)N[C@H](C(=O)N[C@@H](CC(N)=O)C(=O)N[C@H](C(=O)NCC(=O)N[C@@H](CO)C(=O)N[C@@H](Cc1cnc[nH]1)C(=O)N[C@H](C(=O)N[C@@H](Cc1ccc(O)cc1)C(N)=O)[C@@H](C)O)C(C)C)[C@@H](C)O` [Example 57, N-alpha-[(S)-4-Carboxy-4-(19-carboxynonadecanoylamino)butyryl]-[Glu14,Arg17,His35]-pramlintide] ({C20 diacid-γGlu}-KCNTATCATQRLAEFLRHSSNNFGPILPPTNVGSHTY-NH2; disulfide 2-7), in series [1], the half-life was 68 h. Besides, the EC50 turned out to be 0.111 nM in series [2], 0.511 nM in series [3], 0.387 nM in series [5] and 2.84 nM in series [6]. The solubility at 18 h in series [4] (setting [8]) is greater than 200 µM; in series [4] (setting [9]) it was greater than 200 µM; in series [4] (setting [10]) it was greater than 200 µM; in series [4] (bistrispropane buffer, pH 7, pH 7.0, Table 8, read-out: Solubility pH 7.0) it was greater than 200 µM; in series [4] (bistrispropane buffer, pH 7, pH 7.0, Table 9, read-out: Solubility pH 7.0), greater than 200 µM; in series [4] (setting [11]), greater than 200 µM. The solubility at 18 h was 121 µM (≈ 544 µg/mL) in series [4] (bistrispropane buffer, pH 7.5, pH 7.5, Table 9, read-out: Solubility pH 7.5); 121 µM (≈ 544 µg/mL) in series [4] (setting [12]); greater than 200 µM in series [4] (setting [13]); greater than 200 µM in series [4] (setting [14]); greater than 200 µM in series [4] (setting [15]); greater than 200 µM in series [4] (setting [16]). Besides, the solubility at 18 h in series [4] (pH 8.0, read-out: Solubility pH 8.0) turned out to be 80 µM (≈ 360 µg/mL).

pramlintide: the “potency on the amylin receptor relative to the calcitonin receptor” value at amylin receptor is listed as 14 times; on amylin receptor (listed as Pramlintide) it was “approximately 14 times”.

Turning to salmon calcitonin, the plasma half-life entry in series [7] is given as “about 45 minutes”.
